Measured values published in patent US8969554B2, “6-acyl-1,2,4-triazine-3,5-dione derivative and herbicides” (Kumiai Chemical Industry Co., Ltd., priority 2010, dated 2015).

Key:
Format in all cases: in vivo
[1] = tested on: A. retroflexus; experiment: Herbicidal activity by field foliage treatment (Test example 3); parameters: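 index 0 to 10 in 10% steps of herbicidal effect with 10 meaning complete death and 0 below 10%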; conditions: 1000 g effective component per hectare, day 14 after the treatment
Procedure, shortened: (§1)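 Plants were grown from seed in field soil in a greenhouse for 2 weeks, then sprayed over the whole foliage with a water-diluted wettable powder at 1000 L/ha spray volume, delivering 1000 g active ingredient per hectare. Herbicidal effect was scored on day 14 after treatment.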

[2] = tested on: Indian millet; experiment: as above; parameters: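 index 0 to 10 in 10% steps of herbicidal effect with 10 meaning complete death and 0 below 10%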; conditions: 1000 g effective component per hectare, day 14 after the treatment
Procedure, shortened: as §1

[3] = tested on: A. retroflexus; experiment: Herbicidal activity by field soil treatment (Test example 2); parameters: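 index 0 to 10 in 10% steps of herbicidal effect with 10 meaning complete death and 0 below 10%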; conditions: 1000 g effective component per hectare, day 21 after the treatment
Procedure, shortened: (§2)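 Seeds were sown in field soil in 80 cm^2 pots and covered with soil. A water-diluted wettable powder was then sprayed onto the soil surface at 1000 liters per hectare, delivering 1000 g active ingredient per hectare. Plants grew in a greenhouse, and herbicidal effect was scored against set criteria 21 days after treatment.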

[4] = tested on: Echinochloa crus-galli; experiment: as above; parameters: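 index 0 to 10 in 10% steps of herbicidal effect with 10 meaning complete death and 0 below 10%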; conditions: 1000 g effective component per hectare, day 21 after the treatment
Procedure, shortened: as §2

[5] = tested on: Indian millet; experiment: as above; parameters: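 index 0 to 10 in 10% steps of herbicidal effect with 10 meaning complete death and 0 below 10%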; conditions: 1000 g effective component per hectare, day 21 after the treatment
Procedure, shortened: as §2

[6] = tested on: foxtail; experiment: as above; conditions: 1000 g effective component per hectare, day 21 after the treatment;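 note: index 0 to 10 in 10% steps of herbicidal effect with 10 meaning complete death and 0 below 10%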
Procedure, shortened: as §2

[7] = tested on: Scirpus juncoides Rocxb.; experiment: Herbicidal activity by paddy field soil treatment (Test Example 1); parameters: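 index 0 to 10 in 10% steps of herbicidal effect with 10 meaning complete death and 0 below 10%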; conditions: applied on water surface, 1000 g of effective component per hectare, day 21 after the treatment
Procedure, shortened: (§3)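 Seeds were sown in puddled paddy soil in pots flooded to 3 cm water depth; the next day a water-diluted wettable powder was applied to the water surface at 1000 g active ingredient/ha. Plants were grown in a greenhouse and herbicidal effect scored by graded criteria on day 21 after treatment.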

[8] = tested on: Echinochloa oryzicola; experiment: as above; parameters: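 index 0 to 10 in 10% steps of herbicidal effect with 10 meaning complete death and 0 below 10%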; conditions: 1000 g of effective component per hectare, evaluated on day 21 after the treatment, criteria of Table 72
Procedure, shortened: as §3

[9] = tested on: Monochoria vaginalis; experiment: as above; parameters: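 index 0 to 10 in 10% steps of herbicidal effect with 10 meaning complete death and 0 below 10%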; conditions: 1000 g of effective component per hectare, evaluated on day 21 after the treatment, criteria of Table 72
Procedure, shortened: as §3

[10] = tested on: Echinochloa crus-galli; experiment: Herbicidal activity by field foliage treatment (Test example 3); parameters: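 index 0 to 10 in 10% steps of herbicidal effect with 10 meaning complete death and 0 below 10%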; conditions: 1000 g effective component per hectare, day 14 after the treatment
Procedure, shortened: (§4)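 Potted field-soil plants grown 2 weeks in a greenhouse were sprayed over the whole foliage with diluted wettable powder at 1000 L/ha, delivering 1000 g active ingredient per hectare. Herbicidal effect scored by visual criteria 14 days after treatment.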

[11] = tested on: Setaria viridis; experiment: as above; conditions: 1000 g effective component per hectare, day 14 after the treatment;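 note: index 0 to 10 in 10% steps of herbicidal effect with 10 meaning complete death and 0 below 10%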
Procedure, shortened: as §4

Row | Structure (SMILES) | herbicidal effect index, Amaranthus retroflexus [1] | herbicidal effect index, Abutilon theophrasti [2] | herbicidal effect index, Amaranthus retroflexus [3] | herbicidal effect index, Echinochloa crus-galli [4] | herbicidal effect index, Abutilon theophrasti [5] | herbicidal effect index, Setaria viridis [6] | herbicidal effect index, S. juncoides Rocxb. [7] | Herbicidal effects index number, Echinochloa oryzicola [8] | Herbicidal effects index number, Monochoria vaginalis [9] | herbicidal effect index, Echinochloa crus-galli [10] | herbicidal effect index, Setaria viridis [11]
1 | Cn1nc(C(=O)C2=C(O)CCCC2=O)c(=O)n(C)c1=O [I-1] | 10 | 9 | 10 | 8 | 9 | 7 | 10 | 10 | 10 | 8 | 8
2 | Cn1nc(C(=O)C2=C(O)CCCC2=O)c(=O)n(-c2cccc(F)c2)c1=O [I-55] | 10 | 10 | 10 | 10 | 10 | 10 | 10 | 10 | 10 | 10 | 10
3 | Cn1nc(C(=O)C2=C(O)CCCC2=O)c(=O)n(-c2cc(Cl)ccc2Cl)c1=O [I-85] | 10 | 10 | 10 | 9 | 10 | 9 | 10 | 10 | 10 | 9 | 10
4 | Cn1nc(C(=O)C2=C(O)CCCC2=O)c(=O)n(-c2ccccc2[N+](=O)[O-])c1=O [I-66] | 10 | 10 | 10 | 10 | 10 | 10 | 10 | 10 | 10 | 10 | 10
5 | Cn1nc(C(=O)C2=C(O)CCCC2=O)c(=O)n(-c2ccccc2F)c1=O [I-54] | 10 | 10 | 10 | 10 | 10 | 10 | 10 | 10 | 10 | 10 | 10
6 | Cn1nc(C(=O)C2=C(O)CCCC2=O)c(=O)n(C2CC2)c1=O [I-16] | 10 | 9 | 10 | 9 | 9 | 9 | 10 | 9 | 9 | 9 | 9
7 | Cn1nc(C(=O)C2=C(O)CCCC2=O)c(=O)n(-c2ccc(OC(F)(F)F)cc2)c1=O [I-71] | 10 | 9 | 10 | 10 | 10 | 6 | 10 | 10 | 10 | 10 | 9
8 | Cn1nc(C(=O)C2=C(O)CCCC2=O)c(=O)n(CC(F)(F)F)c1=O [I-10] | 10 | 9 | 10 | 10 | 10 | 10 | 10 | 10 | 10 | 8 | 7
9 | CCCCn1c(=O)c(C(=O)C2=C(O)CCCC2=O)nn(C)c1=O [I-5] | 10 | 10 | 10 | 10 | 10 | 7 | 10 | 10 | 10 | 10 | 10
10 | CCCn1c(=O)c(C(=O)C2=C(O)CCCC2=O)nn(C)c1=O [I-3] | 9 | 9 | 10 | 10 | 10 | 10 | 10 | 10 | 10 | 9 | 9
11 | COc1cc(-n2c(=O)c(C(=O)C3=C(O)CCCC3=O)nn(C)c2=O)cc(OC)c1OC [I-169] | 8 | 9 | 10 | 10 | 9 | 10 | 10 | 10 | 10 | 9 | 9
12 | Cc1ccc(C)c(-n2c(=O)c(C(=O)C3=C(O)CCCC3=O)nn(C)c2=O)c1 [I-91] | 10 | 10 | 10 | 9 | 10 | 10 | 10 | 10 | 10 | 9 | 10
